Here are results for two compounds from PMC6073232 (International Journal of Molecular Sciences, 2018).

Each structure is given as a SMILES string.

In experiment [1] the target is T1, TRESK (K2P18.1) (Mus musculus, UniProt Q6VV64).
T1 construct: gene Kcnk18; mouse TRESK (NM_207261) in HEK-293 cells
T1 sequence (Q6VV64 1-394): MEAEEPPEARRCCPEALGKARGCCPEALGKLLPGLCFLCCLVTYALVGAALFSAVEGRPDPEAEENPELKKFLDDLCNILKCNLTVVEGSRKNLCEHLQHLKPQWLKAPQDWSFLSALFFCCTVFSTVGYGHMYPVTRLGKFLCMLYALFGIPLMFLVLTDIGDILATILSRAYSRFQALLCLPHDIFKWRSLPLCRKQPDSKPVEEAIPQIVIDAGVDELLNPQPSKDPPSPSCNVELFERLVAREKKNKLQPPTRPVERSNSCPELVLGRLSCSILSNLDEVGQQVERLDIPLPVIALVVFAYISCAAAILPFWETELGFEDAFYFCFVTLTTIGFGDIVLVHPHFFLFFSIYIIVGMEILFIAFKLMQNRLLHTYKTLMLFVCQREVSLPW
In words: whole-cell patch clamp (abstract prints IC50 […]). Type of experiment: cell-based.

In experiment [2] the target is T1, TRESK (K2P18.1). In words: whole-cell patch clamp, % inhibition at […]. Format: cell-based.

Compound `COC(=O)C1=C(C)NC(C)=C(C(=O)OC)C1c1ccccc1[N+](=O)[O-]` [nifedipine] registered an IC50 in experiment [1] of 63.8 µM.

As for `COc1ccc(CCN(C)CCCC(C#N)(c2cc(OC)c(OC)c(OC)c2)C(C)C)cc1OC` (centres unmarked) [D600], in experiment [2], the inhibition at 20 µM is 45 ± 6%.
